Assay results published in patent EP0082385A1, “1-(3-Nitrophenyl)pyrido(2,3-d)pyrimidine-2,4(1H,3H) diones and 1-(3-nitrophenyl)quinazoline-2-4(1H,3H)diones as cutaneous medicaments” (Troponwerke GmbH & Co. KG, priority 1981, dated 1983).
Like-named read-outs stand apart in the source and are kept apart here.

Columns and labels:
[1] = test system: durch Kaolin induzierten Ödems der Rattenpfote; test: Kaolin-induced rat paw oedema, substance applied to shorn back skin or given p.o.; format: in vivo, Ratte; details: for ED50: 5 h
[2] = test system: Carrageenan-Pfotenödems der Ratte; test: Carrageenan rat paw oedema, preparations of TVX; format: in vivo
Excerpt: Aufbereitung von TVX - Hemmung des Carrageenan-Pfotenödems der Ratte

[3] = test system: emetische Erscheinungen beim Hund; details: dog, in vivo
Method: Die Vermeidung der Nebenwirkungen durch cutane Applikation von Verb. 1 ist nachfolgend beispielhaft für Verb. 1 beschrieben. • 1. Sowohl nach oraler als auch intramuskulärer Applikation von Verb. 1 treten bereits ab einer Dosis von etwa 0.1 mg/kg beim Hund starke emetische Erscheinungen auf. Diese emetische Wirkung beim Hund bleibt auch nach cutaner Applikation von 5 mg/kg der Substanz aus. • 2. Verb. […] Verb.

[4] = test system: Tachyphylaxie bei Ratten; test: Tachyphylaxis (loss of oedema-inhibiting effect) after repeated dosing in rats; format: in vivo
[5] = 0,3 mg/kg cutan, in Dimethylsulfoxid, rat, 5 h after oedema provocation
[6] = po, p.o., rat, read-out: DE50 (mg/kg) Kaolin-ödem p.o.

CCn1c(=O)c2cccnc2n(-c2cccc([N+](=O)[O-])c2)c1=O [Verb. 3, 1-(3-Nitrophenyl)-3-ethylpyridoL2.3-d/pyrimidin-2,4(1H, 3H)dion]
% Hemmung des Kaolin-ödems [1, 5]: 79.8% | ED50 [1, 6]: 0.1 mg/kg

O=c1c2ccccc2n(-c2cccc([N+](=O)[O-])c2)c(=O)n1CCF [Verb. 2, 1-(3-Nitrophenyl)-3-(2-fluorethyl)-chinazolin-2,4(1H, 3H)dion]
% Hemmung des Kaolin-ödems [1, 5]: 56.0% | ED50 [1, 6]: 0.2 mg/kg

COC(=O)c1ccccc1O [Salicyclsäuremethylester, Salicylsäuremethylester, reference compound]
% Hemmung des Kaolin-ödems ([1]; solvent alone (without Verb. 1), cutan, rat): 39.4) %

CCn1c(=O)c2ccccc2n(-c2cccc([N+](=O)[O-])c2)c1=O [Verb. 1, 1-(3-Nitrophenyl)-3-ethylchinazolin-2.4(1H, 3H)-dion]
% Hemmung ([2]; preparation: TVX 0.03, Aceton 6.97, IPM 3.00 (total 10.00)): 51.3% | % Hemmung ([2]; preparation: TVX 0.03, Aceton 9.97 (total 10.00)): 41.7% | % Hemmung ([2]; preparation: TVX 0.03, Essigsäureethylester 6.97, IPM 3.00 (total 10.00)): 64.1% | % Hemmung ([2]; preparation: TVX 0.03, Essigsäureethylester 9.97 (total 10.00)): 31.0% | % Hemmung ([2]; preparation: TVX 0.03, IPM 3.00, Tween 2.00, Isopropanol 4.97 (total 10.00)): 55.1% | % Hemmung ([2]; preparation: TVX 0.03, Milchsäureethylester 6.97, IPM 3.00 (total 10.00)): 50.6% | % Hemmung ([2]; preparation: TVX 0.03, Milchsäureethylester 9.97 (total 10.00)): 42.0% | % Hemmung ([2]; preparation: TVX 0.03, Tween 0.50, Dowanol DPM 9.47 (total 10.00)): 62.7% | Dosis, ab der emetische Wirkung auftritt [3]: > 5 mg/kg | Dosis, ab der starke emetische Erscheinungen auftreten [3]: ~0.1 mg/kg | % Hemmung des Kaolin-ödems ([1]; 0,3 mg/kg cutan, in Cremophor, rat, n = 5): 14.2% | % Hemmung des Kaolin-ödems ([1]; 0,3 mg/kg cutan, in Dimethylacetamid, rat, n = 5): 50.5% | % Hemmung des Kaolin-ödems ([1]; 0,3 mg/kg cutan, in Dimethylformamid, rat, n = 5): 35.0% | % Hemmung des Kaolin-ödems [1, 5]: 48.3% | % Hemmung des Kaolin-ödems ([1]; 0,3 mg/kg cutan, in Erdnußöl, rat, n = 5): 16.7% | % Hemmung des Kaolin-ödems ([1]; 0,3 mg/kg cutan, in Lutrol, rat, n = 5): 18.3% | % Hemmung des Kaolin-ödems ([1]; 0,3 mg/kg cutan, in N-Methylpyrrolidon, rat, n = 5): 63.2% | % Hemmung des Kaolin-ödems ([1]; 0,3 mg/kg cutan, in Ricinusöl, rat, n = 5): 14.2% | % Hemmung des Kaolin-ödems ([1]; 0,3 mg/kg cutan, in Salicylsäuremethylester, rat, n = 5): 77.1% | ED50 ([1]; Rattus norvegicus, topical, cutan in Dimethylsulfoxid, same antiphlogistic effect as 0,3 mg/kg oral, read-out: DE50 nach cutaner Applikation in Dimethylsulfoxid): 0.3 mg/kg | ED50 [1, 6]: 0.3 mg/kg | ödemhemmende Wirkung nach topischer Vorbehandlung ([4]; 6 days topical pretreatment, in Dimethylsulfoxid, 0.3 mg/kg/Tag): eindeutige ödemhemmende Wirkung | Wirkungsverlust (Tachyphylaxie) ([4]; cutaneous application): vollständig vermieden | Tachyphylaxie ([4]; oral doses over several days, seen after three to four days): deutliche Tachyphylaxie
